Values after ≈ are worked out from the molar mass of the structure shown. Where two headings read alike, the source gives them in different places.
Assays:
Cladosporium sp. = test: Antifungal MIC 50 / MIC 90 alone and combined with Tricide; type: cell-based; conditions: for MIC50 / MIC90: antifungal alone
[1] = test system: Paecilomyces variotti ATCC 36257; test: as above; type: cell-based; conditions: for MIC50 / MIC90: ATCC36257
Fusarium sp. 1 = test: microbe, parasite or virus in culture; type: cell-based; conditions: for Summary % reduction in MIC 50 using Tricide / Summary % reduction in MIC 90 using Tricide: Fasarium sp. 1; for % decrease MIC 50 / % decrease MIC 90 / MIC 90 combined with Tricide / MIC50 / MIC90: Fusarium sp. 1; for % decrease MIC 50 / % decrease MIC 90 / MIC 90 combined with Tricide: Tricide 540 ug/ml; for MIC50 / MIC90: antifungal alone;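 for all read-outs here: mean MIC 50 and MIC 90 values against fungal isolates, with percent decrease in MIC when the antifungal is combined with Tricide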
Curvularia sp. = test: Antifungal MIC 50 / MIC 90 alone and combined with Tricide; type: cell-based; conditions: for % decrease MIC 50 / % decrease MIC 90 / MIC 50 combined with Tricide / MIC 90 combined with Tricide: Curvilaria sp., Tricide 200 ug/ml; for Summary % reduction in MIC 50 using Tricide / Summary % reduction in MIC 90 using Tricide / MIC50 / MIC90: Curvularia sp.; for MIC50 / MIC90: antifungal alone;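 for all read-outs here: antifungal MIC 50 and MIC 90 values against fungal isolates, with percent figures expressing how much the MIC fell once Tricide was added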
Fusarium sp. 2 = test: microbe, parasite or virus in culture; type: cell-based; conditions: for MIC50 / MIC90: antifungal alone
Penicillium sp. = test: Antifungal MIC 50 / MIC 90 alone and combined with Tricide; type: cell-based; conditions: for % decrease MIC 50 / % decrease MIC 90 / MIC 50 combined with Tricide / MIC 90 combined with Tricide: Tricide 200 ug/ml; for MIC50 / MIC90: antifungal alone
Fusarium sp. 3 = test: microbe, parasite or virus in culture; type: cell-based; conditions: for % decrease MIC 50 / % decrease MIC 90 / MIC 50 combined with Tricide / MIC 90 combined with Tricide: Tricide 540 ug/ml; for MIC50 / MIC90: antifungal alone
Aspergillus sp. = test: Antifungal MIC 50 / MIC 90 alone and combined with Tricide; type: cell-based; conditions: for % decrease MIC 50 / % decrease MIC 90 / MIC 50 combined with Tricide / MIC 90 combined with Tricide: Aspergillus sp., Tricide 200 ug/ml; for MIC50 / MIC90: Aspergillus, antifungal alone; for MIC50 / MIC90 / Summary % reduction in MIC 50 using Tricide / Summary % reduction in MIC 90 using Tricide: Aspergiullus sp.
[2] = test system: Candidia albicans ATCC 90028; test: as above; type: cell-based, Candida albicans; conditions: for MIC50 / MIC90 / % decrease MIC 50 / % decrease MIC 90 / MIC 50 combined with Tricide: Candida albicans; for MIC50 / MIC90: ATCC90028, antifungal alone; for MIC50 / MIC90 / Summary % reduction in MIC 50 using Tricide / Summary % reduction in MIC 90 using Tricide: Candidia albicans ATCC 90028; for % decrease MIC 50 / % decrease MIC 90 / MIC 50 combined with Tricide: Tricide […];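 for all read-outs here: MIC 50 and MIC 90 values are means, and the percent decrease is the drop in MIC when the antifungal is combined with Tricide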
[3] = Paecilomyces variotti ATCC36257
[4] = Paecilomyces variotti, Tricide […]

With `CC(=O)N1CCN(c2ccc(OCC3COC(Cn4ccnc4)(c4ccc(Cl)cc4Cl)O3)cc2)CC1` (centres unmarked) [Ketoconazole, ketoconazole] the “Summary % reduction in MIC 50 using Tricide” value (Cladosporium sp.) was 75%, the “Summary % reduction in MIC 90 using Tricide” value (Cladosporium sp.) was 94% and the “% decrease MIC 50” value (Cladosporium sp.; Tricide 200 ug/ml) was over 75%. For the same molecule, the “% decrease MIC 90” value (Cladosporium sp.; Tricide 200 ug/ml) was 94%, the “MIC 90 combined with Tricide” value (Cladosporium sp.; Tricide 200 ug/ml) was 0.125 µg/mL and the MIC50 (Cladosporium sp.) was 0.5 µg/mL. The MIC90 (Cladosporium sp.) was 2 µg/mL, the “Summary % reduction in MIC 50 using Tricide” value [1, 3] was 100% and the “Summary % reduction in MIC 90 using Tricide” value [1, 3] was 75%. For the same molecule, the “% decrease MIC 50” value [1, 4] was 100%, the “% decrease MIC 90” value [1, 4] was 75% and the “MIC 50 combined with Tricide” value [1, 4] was 0 µg/mL. For the same molecule, the “MIC 90 combined with Tricide” value [1, 4] was 0.25 µg/mL, the MIC50 ([1]; Paecilomyces) was 0.0382 µg/mL and the MIC90 ([1]; Paecilomyces) was 1 µg/mL. The “Summary % reduction in MIC 50 using Tricide” value (Fusarium sp. 1) was >99.9%-100%, the “Summary % reduction in MIC 90 using Tricide” value (Fusarium sp. 1) was 99.9%-100% and the “% decrease MIC 50” value (Fusarium sp. 1) was >99.9-100% ^. The “% decrease MIC 90” value (Fusarium sp. 1) was 99.9-100%^, the “MIC 90 combined with Tricide” value (Fusarium sp. 1) was 0 to 0.05 µg/mL and the MIC50 (Fusarium sp. 1) was over 128 µg/mL. The MIC90 (Fusarium sp. 1) was over 128 µg/mL, the “% decrease MIC 50” value (Curvularia sp.) was 96.3-100%^ and the “% decrease MIC 90” value (Curvularia sp.) was 74-100% ^. For the same molecule, the “MIC 50 combined with Tricide” value (Curvularia sp.) was 0 to 0.0250 µg/mL, the “MIC 90 combined with Tricide” value (Curvularia sp.) was 0 to 0.4 µg/mL and the “Summary % reduction in MIC 50 using Tricide” value (Curvularia sp.) was 96.3%-100%. The “Summary % reduction in MIC 90 using Tricide” value (Curvularia sp.) was 74%-100%, the MIC50 (Curvularia sp.) was 0.667 µg/mL and the MIC90 (Curvularia sp.) was 1.56 µg/mL. For the same molecule, the “Summary % reduction in MIC 50 using Tricide” value (Fusarium sp. 2) was >99.5%-100%, the “Summary % reduction in MIC 90 using Tricide” value (Fusarium sp. 2) was 99.9%-100% and the “% decrease MIC 50” value (Fusarium sp. 2; Tricide 540 ug/ml) was >99.5-100% ^. For the same molecule, the “% decrease MIC 90” value (Fusarium sp. 2; Tricide 540 ug/ml) was >99.9-100% ^, the MIC50 (Fusarium sp. 2) was 11.2 µg/mL (≈ 21.1 µM) and the MIC90 (Fusarium sp. 2) was 64 µg/mL (≈ 120 µM). The “Summary % reduction in MIC 50 using Tricide” value (Penicillium sp.) was 100%, the “Summary % reduction in MIC 90 using Tricide” value (Penicillium sp.) was 100% and the “% decrease MIC 50” value (Penicillium sp.) was 100%. For the same molecule, the “% decrease MIC 90” value (Penicillium sp.) was 100%, the “MIC 50 combined with Tricide” value (Penicillium sp.) was 0 µg/mL and the “MIC 90 combined with Tricide” value (Penicillium sp.) was 0 µg/mL. For the same molecule, the MIC50 (Penicillium sp.) was 0.181 µg/mL, the MIC90 (Penicillium sp.) was 0.5 µg/mL and the “Summary % reduction in MIC 50 using Tricide” value (Fusarium sp. 3) was 100%. For the same molecule, the “Summary % reduction in MIC 90 using Tricide” value (Fusarium sp. 3) was 100%, the “% decrease MIC 50” value (Fusarium sp. 3) was 100% and the “% decrease MIC 90” value (Fusarium sp. 3) was 100%. For the same molecule, the “MIC 50 combined with Tricide” value (Fusarium sp. 3) was 0 µg/mL, the “MIC 90 combined with Tricide” value (Fusarium sp. 3) was 0 µg/mL and the MIC50 (Fusarium sp. 3) was over 128 µg/mL. For the same molecule, the MIC90 (Fusarium sp. 3) was over 128 µg/mL, the “% decrease MIC 50” value (Aspergillus sp.) was 87.5% and the “% decrease MIC 90” value (Aspergillus sp.) was 95.8%. For the same molecule, the “MIC 50 combined with Tricide” value (Aspergillus sp.) was 0.25 µg/mL, the “MIC 90 combined with Tricide” value (Aspergillus sp.) was 0.5 µg/mL and the MIC50 (Aspergillus sp.) was 2 µg/mL. For the same molecule, the MIC90 (Aspergillus sp.) was 12 µg/mL, the “Summary % reduction in MIC 50 using Tricide” value (Aspergillus sp.) was 87.5% and the “Summary % reduction in MIC 90 using Tricide” value (Aspergillus sp.) was 95.8%. The MIC50 [2] was 0.0313 µg/mL, the MIC90 [2] was over 1 µg/mL and the “% decrease MIC 50” value [2] was 100%. For the same molecule, the “% decrease MIC 90” value [2] was 100%, the “MIC 50 combined with Tricide” value [2] was 0 µg/mL and the “Summary % reduction in MIC 50 using Tricide” value [2] was 100%. For the same molecule, the “Summary % reduction in MIC 90 using Tricide” value [2] was 100%.

For `Clc1ccc(COC(Cn2ccnc2)c2ccc(Cl)cc2Cl)c(Cl)c1` (centres unmarked) [Miconazole, miconazole], the “Summary % reduction in MIC 50 using Tricide” value (Cladosporium sp.) was 97%, the “Summary % reduction in MIC 90 using Tricide” value (Cladosporium sp.) was 98% and the “% decrease MIC 50” value (Cladosporium sp.; Tricide 200 ug/ml) was over 97%. For the same molecule, the “% decrease MIC 90” value (Cladosporium sp.; Tricide 200 ug/ml) was 98%, the “MIC 50 combined with Tricide” value (Cladosporium sp.; Tricide 200 ug/ml) was under 0.125 µg/mL and the “MIC 90 combined with Tricide” value (Cladosporium sp.; Tricide 200 ug/ml) was 0.25 µg/mL. The MIC50 (Cladosporium sp.) was 4 µg/mL, the MIC90 (Cladosporium sp.) was 16 µg/mL and the MIC50 ([1]; Paecilomyces variotti ATCC 36257, antifungal alone, read-out: MIC 50) was 0.0764 µg/mL. The MIC90 ([1]; Paecilomyces variotti ATCC 36257, antifungal alone, read-out: MIC 90) was over 1 µg/mL, the “Summary % reduction in MIC 50 using Tricide” value [1, 3] was 97.4% and the “% decrease MIC 50” value [1, 4] was 97.4%. For the same molecule, the “MIC 50 combined with Tricide” value [1, 4] was 0.002 µg/mL, the “MIC 90 combined with Tricide” value [1, 4] was over 1 µg/mL and the “Summary % reduction in MIC 50 using Tricide” value (Fusarium sp. 1) was >99.8%-100%. For the same molecule, the “Summary % reduction in MIC 90 using Tricide” value (Fusarium sp. 1) was 99.8%-100%, the “% decrease MIC 50” value (Fusarium sp. 1) was >99.8-100% ^ and the “% decrease MIC 90” value (Fusarium sp. 1) was 99.8-100%^. For the same molecule, the “MIC 90 combined with Tricide” value (Fusarium sp. 1) was 0 to 0.05 µg/mL, the MIC50 (Fusarium sp. 1) was over 128 µg/mL and the MIC90 (Fusarium sp. 1) was over 128 µg/mL. For the same molecule, the “% decrease MIC 50” value (Curvularia sp.) was 99-100% ^, the “% decrease MIC 90” value (Curvularia sp.) was 90-100% ^ and the “MIC 50 combined with Tricide” value (Curvularia sp.) was 0 to 0.0250 µg/mL. For the same molecule, the “MIC 90 combined with Tricide” value (Curvularia sp.) was 0 to 0.4 µg/mL, the “Summary % reduction in MIC 50 using Tricide” value (Curvularia sp.) was 99-100% ^ and the “Summary % reduction in MIC 90 using Tricide” value (Curvularia sp.) was 90-100% ^. The MIC50 (Curvularia sp.) was 3.11 µg/mL, the MIC90 (Curvularia sp.) was 4 µg/mL and the “Summary % reduction in MIC 50 using Tricide” value (Fusarium sp. 2) was >99.9%-100%. For the same molecule, the “Summary % reduction in MIC 90 using Tricide” value (Fusarium sp. 2) was 99.9%-100%, the “% decrease MIC 50” value (Fusarium sp. 2; Tricide 540 ug/ml) was >99.9-100% ^ and the “% decrease MIC 90” value (Fusarium sp. 2; Tricide 540 ug/ml) was 99.9-100%^. The “MIC 90 combined with Tricide” value (Fusarium sp. 2; Tricide 540 ug/ml) was 0.05 µg/mL, the MIC50 (Fusarium sp. 2) was over 128 µg/mL and the MIC90 (Fusarium sp. 2) was over 128 µg/mL. For the same molecule, the “Summary % reduction in MIC 50 using Tricide” value (Penicillium sp.) was 100%, the “Summary % reduction in MIC 90 using Tricide” value (Penicillium sp.) was 100% and the “% decrease MIC 50” value (Penicillium sp.) was 100%. The “% decrease MIC 90” value (Penicillium sp.) was 100%, the “MIC 50 combined with Tricide” value (Penicillium sp.) was 0 µg/mL and the “MIC 90 combined with Tricide” value (Penicillium sp.) was 0 µg/mL. For the same molecule, the MIC50 (Penicillium sp.) was 0.181 µg/mL, the MIC90 (Penicillium sp.) was 0.361 µg/mL and the “Summary % reduction in MIC 50 using Tricide” value (Fusarium sp. 3) was 100%. For the same molecule, the “Summary % reduction in MIC 90 using Tricide” value (Fusarium sp. 3) was 100%, the “% decrease MIC 50” value (Fusarium sp. 3) was 100% and the “% decrease MIC 90” value (Fusarium sp. 3) was 100%. The “MIC 50 combined with Tricide” value (Fusarium sp. 3) was 0 µg/mL, the “MIC 90 combined with Tricide” value (Fusarium sp. 3) was 0 µg/mL and the MIC50 (Fusarium sp. 3) was over 128 µg/mL. The MIC90 (Fusarium sp. 3) was over 128 µg/mL, the “% decrease MIC 50” value (Aspergillus sp.) was 96% and the “% decrease MIC 90” value (Aspergillus sp.) was 84%. For the same molecule, the “MIC 50 combined with Tricide” value (Aspergillus sp.) was 0.1250 µg/mL, the “MIC 90 combined with Tricide” value (Aspergillus sp.) was 2 µg/mL and the MIC50 (Aspergillus sp.) was 3.11 µg/mL. For the same molecule, the MIC90 (Aspergillus sp.) was 12.4 µg/mL, the “Summary % reduction in MIC 50 using Tricide” value (Aspergillus sp.) was 96% and the “Summary % reduction in MIC 90 using Tricide” value (Aspergillus sp.) was 84%. For the same molecule, the MIC50 [2] was 0.5 µg/mL, the MIC90 [2] was over 1 µg/mL and the “% decrease MIC 50” value [2] was 100%. The “% decrease MIC 90” value [2] was 100%, the “MIC 50 combined with Tricide” value [2] was 0 µg/mL and the “Summary % reduction in MIC 50 using Tricide” value [2] was 100%. For the same molecule, the “Summary % reduction in MIC 90 using Tricide” value [2] was 100%.
